Structure (SMILES): CCCCn1cnc2c(OC)nc(Nc3ccc4c(c3)OCO4)nc21 [compound 95, 2-[(3,4-Methylenedioxyphenyl)amino]-6-methoxy-9-butyl-9H-purine]
- melting point: 160 to 161 °C

Structure (SMILES): CCCCn1cnc2c(Oc3cccnc3)nc(Nc3ccc(F)cc3)nc21.CS(=O)(=O)O [compound 37, 2-[(4-Fluorophenyl)amino]-6-(pyrid-3-yloxy)-9-butyl-9H-purine methanesulfonate]
- melting point: > 300 °C
